Measurements taken from patent USRE48461E1, “Modulation of androgen receptor expression” (Ionis Pharmaceuticals, Inc., priority 2012, dated 2021).

What was measured:
Assay type in all cases: cell-based, human
[1] = test system: prostate-specific antigen (PSA) mRNA; assay: Time-course PSA expression in C4-2B cells
Procedure: C4-2B cells were plated at 1,000 cells per well in complete medium. […] ISIS 549148 was included as a negative control. […] After a treatment period of 8 hours, 24 hours, and 48 hours, AR expression was measured with primer probe set hAR-LTS00943. Results are presented in Tables 70-72 as percent expression of AR, relative to non-treated cells.
Expression analysis of prostate-specific antigen (PSA) and TMPRSS2 were also analyzed. Results are presented in Tables 73-75 as percent inhibition of PSA expression and Tables 76-78 as percent inhibition of TMPRSS2 expression, relative to non-treated cells.

[2] = test system: AR mRNA; assay: AR RNA expression in LNCaP cells (complete, CSS, CSS+DHT medium); details: for Percent expression of AR in LNCaP cells cultured in CSS + DHT medium: CSS + DHT (1 nM) medium; for Percent expression of AR in LNCaP cells cultured in CSS + DHT medium / Percent expression of AR in LNCaP cells cultured in CSS medium: 48 hrs; for Percent expression of AR in LNCaP cells cultured in complete medium: 48 hours
Procedure: Cells were plated at 1,000 cells per well. […] After an incubation period of 48 hours, RNA levels of AR, PSA and TMPRSS2 were measured.
Cells were plated at 2,000 cells per well and cultured in phenol red-free RPMI supplemented with 5% charcoal stripped serum (Gibco) media for 16 hours. […] After an incubation period of 4 hrs, DHT was added to the medium to a final concentration of 1 nM as indicated. RNAs were collected 48 hrs later and levels of AR, PSA and TMPRSS2 were measured.

[3] = test system: LNCaP cells; assay: LNCaP cell proliferation (complete or CSS+DHT medium); details: 5 days; for Proliferation (% untreated control) in LNCaP cells cultured in CSS + DHT medium: CSS + 1 nM DHT medium
Procedure: After a treatment period of 5 days in complete medium or CSS+1 nM DHT medium, the proliferative capacity of the cancer cells was measured with using CellTiter 96® AQueous One Solution or CellTiter-Glo® solution Cell Proliferation kit (Promega), following the manufacturer's instructions. […] Treatment with ISIS oligonucleotides in CSS+DHT medium reduced the proliferative capacity to a greater extent than treatment with MVD-3100. The proliferative capacity of cells cultured in CSS medium without DHT is 17% of untreated control levels.

[4] = test system: TMPRSS2 mRNA; assay: TMPRSS2 expression in C4-2B cells (Example 30); details: 48 hrs
Procedure: Cells were plated at 1,000 cells per well. […] ISIS 549148 was included as a negative control. […] After an incubation period of 48 hrs, RNA levels of AR, PSA and TMPRSS2 were measured.
Cells were plated at 2,000 cells per well and cultured in CSS media with 1 nM DHT. […] ISIS 549148 was included as a negative control. […] After an incubation period of 48 hrs, RNA levels of AR, PSA and TMPRSS2 were measured. In the absence of DHT, AR expression in C4-2 cells was 188%, PSA expression was 43% and TMPRSS2 expression was 27% compared to the untreated control.

[5] = test system: LNCaP cells; assay: LNCaP cell proliferation, ASO in combination with MDV3100 (Example 20); details: Homo sapiens, LNCaP, read-out: inhibited proliferation, MDV3100 with control oligonucleotide ISIS 549148
Procedure: LNCaP cells were plated at 1,000 cells per well. […] ISIS 549148 was included as a negative control. […] After a treatment period of 5 days, the proliferative capacity of the cancer cells was measured with CellTiter 96® AQueous One or CellTiter-Glo® Solution Cell Proliferation kit (Promega), following the manufacturer's instructions. […]

CNC(=O)c1ccc(N2C(=S)N(c3ccc(C#N)c(C(F)(F)F)c3)C(=O)C2(C)C)cc1F [MDV3100, 4-(3-(4-cyano-3-(trifluoromethyl)phenyl)-5,5-dimethyl-4-oxo-2-thioxoimidazolidin-1-yl)-2-fluoro-N-methylbenzamide, reference compound]
Percent inhibition of PSA expression compared to the control group in 8 hours ([1]; 0.04 μM): 0%
Percent inhibition of PSA expression compared to the control group in 24 hours ([1]; 0.04 μM): 24%
Percent inhibition of PSA expression compared to the control group in 48 hours ([1]; 0.04 μM): 5%
Percent inhibition of PSA expression compared to the control group in 8 hours ([1]; 0.2 μM): 3%
Percent inhibition of PSA expression compared to the control group in 24 hours ([1]; 0.2 μM): 24%
Percent inhibition of PSA expression compared to the control group in 48 hours ([1]; 0.2 μM): 5%
Percent inhibition of PSA expression compared to the control group in 8 hours ([1]; 1 μM): 23%
Percent inhibition of PSA expression compared to the control group in 24 hours ([1]; 1 μM): 53%
Percent inhibition of PSA expression compared to the control group in 48 hours ([1]; 1 μM): 32%
Percent inhibition of PSA expression compared to the control group in 8 hours ([1]; 5.0 μM): 33%
Percent inhibition of PSA expression compared to the control group in 24 hours ([1]; 5.0 μM): 65%
Percent inhibition of PSA expression compared to the control group in 48 hours ([1]; 5.0 μM): 63%
PSA expression ([1]; time course): also reduced downstream gene expressions but not as potently as that with the ISIS oligonucleotides
Percent expression of AR in LNCaP cells cultured in CSS + DHT medium ([2]; 0.04 μM): 107%
Percent expression of AR in LNCaP cells cultured in CSS + DHT medium ([2]; 0.2 μM): 121%
Percent expression of AR in LNCaP cells cultured in CSS + DHT medium ([2]; 1 μM): 110%
Percent expression of AR in LNCaP cells cultured in CSS + DHT medium ([2]; 5.0 μM): 113%
Percent expression of AR in LNCaP cells cultured in CSS medium ([2]; 0.04 μM): 91%
Percent expression of AR in LNCaP cells cultured in CSS medium ([2]; 0.2 μM): 67%
Percent expression of AR in LNCaP cells cultured in CSS medium ([2]; 1 μM): 64%
Percent expression of AR in LNCaP cells cultured in CSS medium ([2]; 5.0 μM): 77%
Percent expression of AR in LNCaP cells cultured in complete medium ([2]; 0.2 μM): 133%
Percent expression of AR in LNCaP cells cultured in complete medium ([2]; 1 μM): 121%
Percent expression of AR in LNCaP cells cultured in complete medium ([2]; 5.0 μM): 139%
Proliferation (% untreated control) in LNCaP cells cultured in CSS + DHT medium ([3]; 0.04 μM): 112 % untreated control
Proliferation (% untreated control) in LNCaP cells cultured in CSS + DHT medium ([3]; 0.2 μM): 95 % untreated control
Proliferation (% untreated control) in LNCaP cells cultured in CSS + DHT medium ([3]; 1 μM): 74 % untreated control
Proliferation (% untreated control) in LNCaP cells cultured in CSS + DHT medium ([3]; 5.0 μM): 33 % untreated control
proliferation of LNCaP cells ([3]; complete medium or CSS+1 nM DHT): reduced proliferation of the cells in a dose dependent compared to the control
Proliferation (% untreated control) in LNCaP cells cultured in complete medium ([3]; 0.04 μM): 107 % untreated control
Proliferation (% untreated control) in LNCaP cells cultured in complete medium ([3]; 0.2 μM): 88 % untreated control
Proliferation (% untreated control) in LNCaP cells cultured in complete medium ([3]; 1 μM): 65 % untreated control
Proliferation (% untreated control) in LNCaP cells cultured in complete medium ([3]; 5.0 μM): 45 % untreated control
Percent inhibition of TMPRSS2 expression ([4]; CSS + DHT medium, 0.04 μM): 0%
Percent inhibition of TMPRSS2 expression ([4]; CSS + DHT medium, 0.2 μM): 11%
Percent inhibition of TMPRSS2 expression ([4]; CSS + DHT medium, 1 μM): 48%
Percent inhibition of TMPRSS2 expression ([4]; CSS + DHT medium, 5.0 μM): 66%
Percent inhibition of TMPRSS2 expression ([4]; complete medium, 0.04 μM): 3%
Percent inhibition of TMPRSS2 expression ([4]; complete medium, 0.2 μM): 24%
Percent inhibition of TMPRSS2 expression ([4]; complete medium, 1 μM): 55%
Percent inhibition of TMPRSS2 expression ([4]; complete medium, 5.0 μM): 71%
inhibition at 0.08 µM [5]: 7%
